Laboratory results: patent publication US8685469B2, “In vitro anti-sickling activity of betulinic acid, oleanolic acid and their derivatives” (University of KwaZulu-Natal, priority 2009, dated 2014)

Tested on: sickled blood cells (SS blood erythrocytes)
Assay: In vitro anti-sickling activity, Emmel test on SS blood
Assay type: cell-based
Conditions: for Emmel Test Result: 2% sodium metabisulphite, 2 hours anaerobic, compounds diluted in NaCl 0.9%
Description: Blood samples were collected from “Centre de Medecine Mixte et d'Anémie SS” located in Kinshasa, Democratic Republic of Congo (DRC). The blood samples were first characterised by Hb electrophoresis on cellulose acetate gel, in order to confirm their SS nature, as previously reported by Mpiana et al., 2007^6. Confirmed SS blood samples were refrigerated at ˜4° C., and used for Emmel test.
A drop of physiological solution was put on a glass slide and a drop of SS blood was added on the physiological solution. One drop of 2% sodium metabisulphite solution was added on the slide glass which was hermetically covered using a cover glass with melted paraffin wax and kept covered for 2 hours in order to accelerate the sickling of the blood. After 2 hours in anaerobic conditions, the blood sample became deoxygenated and adopted sickle shape. Assay was observed under an optical microscope and the number of observed erythrocytes was determined using Thomas' cell (Courtejoie, J. and Hartaing, I, 1992)^7.
SS blood samples were contacted at different concentrations with diluted samples of the compounds (8), (9), (10), and (11) using physiological solution (NaCl 0.9%) as dilution solvent, according to Emmel's test procedure as reported above and optical measurements were taken.
Pictures were obtained with an optical microscope (motic). In order to convert the photonic micrograph image into a digital image, a Canon digital camera (Zoom X6) was used to digitize micrographs using Motic Images 200 version 1.3 software, on Windows XP. Thomas' cell was used to observe the number of erythrocytes. The results of the in vitro anti-sickling activity of betulinic acid (8), 3-acetoxybetulinic acid (11), oleanolic acid (9) and maslinic acid (10) are shown in Table 1.

| Structure (SMILES) | Emmel Test Result | normalisation of sickled blood cells (Emmel test, in vitro) |
| --- | --- | --- |
| C=C(C)[C@@H]1CC[C@]2(C(=O)O)CC[C@]3(C)[C@H](CC[C@@H]4[C@@]5(C)CC[C@H](O)C(C)(C)[C@@H]5CC[C@]43C)[C@@H]12 [DS/10/C/A, Betulinic acid] | +++ (+++ = >70% normalisation of sickled blood cells.) | – |
| CC1(C)CC[C@]2(C(=O)O)CC[C@]3(C)C(=CC[C@@H]4[C@@]5(C)CC[C@H](O)C(C)(C)[C@@H]5CC[C@]43C)[C@@H]2C1 [DS/FS/1, Oleanolic acid] | + (+ = 10 to 50% normalisation of sickled blood cells.) | 10-50% |
| CC1(C)CC[C@]2(C(=O)O)CC[C@]3(C)C(=CC[C@@H]4[C@@]5(C)C[C@@H](O)[C@H](O)C(C)(C)[C@@H]5CC[C@]43C)[C@@H]2C1 [DS/FS/2, Maslinic acid] | +++ (+++ = >70% normalisation of sickled blood cells.) | – |
| C=C(C)[C@@H]1CC[C@]2(C(=O)O)CC[C@]3(C)[C@H](CC[C@@H]4[C@@]5(C)CC[C@H](OC(C)=O)C(C)(C)[C@@H]5CC[C@]43C)[C@@H]12 [DS/10/C/Ab, 3-acetoxybetulinic acid] | +++ (+++ = >70% normalisation of sickled blood cells.) | – |
